Reference: patent publication US20250360235A1, “RADI[…] AND METHOD FOR RADIOLABELLING” (Telix Innovations SA, priority 2024, published 2025)

Experiments:
[1] = pH of [68Ga]PSMA-11 solution (acceptance 4.0-5.0); format: physicochemical
Method: (§1) 100 μl of the ascorbic acid solution (equivalent to 25 mg ascorbic acid) was taken from vial 3, and was filtered through a 5 μm filter needle. The sodium ascorbate solution was subsequently added to vail 2, and mixed thoroughly. The obtained content of vial 2 was added to vial 1, and again mixed thoroughly. To this obtained vail 1, the eluate, comprising the gallium-68, was added to obtain a gallium-68 labelled PSMA-11 solution. Optionally, a 2.5 ml 0.9% sodium chloride solution may be added to increase the volume and/or to amend the osmolality to be under 1000 mOsm/kg.
The pH of the gallium-68 labelled PSMA-11 solution was 4.5 immediately after the radiolabelling procedure and was unchanged after 4 hours.
as §1, with “a Gallium-68” for “a gallium-68”, “a” for “a 2.5 ml 0.9%”, “volume of the obtained Gallium-68 labelled PSMA-11 solution” for “volume”, “mOsm/kg. The pH of the gallium-68 labelled PSMA-11 solution was 4.5 immediately after the radiolabelling procedure and was unchanged after 4 hours.” for “mOsm/kg.”
as §1, with “a Gallium-68” for “a gallium-68”, “a” for “a 2.5 ml 0.9%”, “volume of the obtained Gallium-68 labelled PSMA-11 solution” for “volume”, “mOsm/kg. The pH of the gallium-68 labelled PSMA-11 solution was 4.5 immediately after the radiolabelling procedure and was unchanged after 6 hours.” for “mOsm/kg.”
(§2) Table 1 to Table 5 show the results of various radiolabelling experiments on radiochemical purity and the chelation yield. The radiolabelling experiments in the tables are carried out as described in: • Example 1 for when the gallium-68 source is GE Liquid target generator and EZAG GalliaPharm generator; • Example 2 for when the gallium-68 source is IRE Galli Eo generator; • Example 3 for when the gallium-68 source is GE solid target generator;
(§3) However, the experiments were carried out with the amount of ascorbic acid as indicated in the Tables 1 to 5, and the activity as indicated in the Tables 1 to 5. Radiochemical purities were measured at various times (T0, T1, T4, T6) after the radiolabelled experiments have been conducted.
(§4) The kits of Example 1, Example 2 or Example 3, with amounts of ascorbic acid as set out in Table 7 were used in the experiments for the ascorbic acid bracketing matrix. Three strengths of [^68Ga]Ga-PSMA-11 will be tested, i.e. 50 mCi/ml, 7 mCi/ml and 1 mCi/ml. Radiochemical purity was determined at different time points (TO, T1, T4 or T6), as set out in Table 7.

[2] = Visual inspection of [68Ga]PSMA-11 solution (acceptance: colourless to slightly yellow solution, free from visible particles); format: physicochemical; parameters: key: C = all results conform to specifications
Method: as §2, §3, §4

[3] = control, 0 mg ascorbic acid, 70 mCi, GE Solid Target, n=1, T0
[4] = control, 0 mg ascorbic acid, 70 mCi, GE Solid Target, n=1, T4 (4 h)
[5] = validation batches, 25 mg ascorbic acid, 51.6-62.7 mCi, 4.56-5.88 mCi/mL, IRE Galli Eo, n=3, T0
[6] = validation batches, 25 mg ascorbic acid, 51.6-62.7 mCi, 4.56-5.88 mCi/mL, IRE Galli Eo, n=3, T4 (4 h)
[7] = validation batches, 25 mg ascorbic acid, 53.3-74.4 mCi, 5.03-6.92 mCi/mL, GE Liquid target, n=3, T0
[8] = validation batches, 25 mg ascorbic acid, 53.3-74.4 mCi, 5.03-6.92 mCi/mL, GE Liquid target, n=3, T4 (4 h)
[9] = validation batches, 25 mg ascorbic acid, 65.0-66.4 mCi, 5.74-6.15 mCi/mL, EZAG GalliaPharm, n=3, T0
[10] = validation batches, 25 mg ascorbic acid, 65.0-66.4 mCi, 5.74-6.15 mCi/mL, EZAG GalliaPharm, n=3, T4 (4 h)
[11] = validation batches, 25 mg ascorbic acid, 537-551 mCi, 50.2-51.6 mCi/mL, GE Solid Target, n=3, T0
[12] = validation batches, 25 mg ascorbic acid, 537-551 mCi, 50.2-51.6 mCi/mL, GE Solid Target, n=3, T6 (6 h)
[13] = validation batches, 25 mg ascorbic acid, 555-564 mCi, 51.1-52.7 mCi/mL, ARTMS Solid Target, n=3, T0
[14] = validation batches, 25 mg ascorbic acid, 555-564 mCi, 51.1-52.7 mCi/mL, ARTMS Solid Target, n=3, T6 (6 h)

Compound: O=C([O-])CN(CCN(CC(=O)[O-])Cc1cc(CCC(=O)NCCCCCC(=O)NCCCC[C@H](NC(=O)N[C@@H](CCC(=O)O)C(=O)O)C(=O)O)ccc1[O-])Cc1cc(CCC(=O)O)ccc1[O-].[68Ga+3].[OH3+] [[^68Ga]PSMA-11, gallium-68 radiolabelled Glu-urea-Lys-HBED-CC (gozetotide or PSMA-11)]
- pH ([1]; bracketing ~7 mCi/mL, 25 mg ascorbic acid, 51.6-74.4 mCi, 4.56-6.92 mCi/mL, 3 × GE Liquid Target, 3 × IRE Galli Eo, 3 × EZAG GalliaPharm, n=9, T4 (4 h)): C (C = Conforms to specifications)
- pH ([1]; bracketing ~7 mCi/mL, 31.25 mg ascorbic acid, 61.5-62.0 mCi, 5.85-5.88 mCi/mL, EZAG GalliaPharm, n=2, T0): C (C = Conforms to specifications)
- pH ([1]; bracketing ~7 mCi/mL, 31.25 mg ascorbic acid, 61.5-62.0 mCi, 5.85-5.88 mCi/mL, EZAG GalliaPharm, n=2, T4 (4 h)): C (C = Conforms to specifications)
- pH ([1]; bracketing ~50 mCi/mL, 20 mg ascorbic acid, 514-544 mCi, 48.3-51.9 mCi/mL, GE Solid Target, n=2, T0): C (C = Conforms to specifications)
- pH ([1]; bracketing ~50 mCi/mL, 20 mg ascorbic acid, 514-544 mCi, 48.3-51.9 mCi/mL, GE Solid Target, n=2, T6 (6 h)): C (C = Conforms to specifications)
- pH ([1]; bracketing ~50 mCi/mL, 25 mg ascorbic acid, 537-551 mCi, 50.2-51.6 mCi/mL, GE Solid Target, n=3, T0): C (C = Conforms to specifications)
- pH ([1]; bracketing ~50 mCi/mL, 25 mg ascorbic acid, 537-551 mCi, 50.2-51.6 mCi/mL, GE Solid Target, n=3, T6 (6 h)): C (C = Conforms to specifications)
- pH ([1]; bracketing ~50 mCi/mL, 31.25 mg ascorbic acid, 500-544 mCi, 48.1-51.7 mCi/mL, GE Solid Target, n=2, T0): C (C = Conforms to specifications)
- pH ([1]; bracketing ~50 mCi/mL, 31.25 mg ascorbic acid, 500-544 mCi, 48.1-51.7 mCi/mL, GE Solid Target, n=2, T6 (6 h)): C (C = Conforms to specifications)
- pH [1, 3]: C (C = all results conform to specifications)
- pH [1, 4]: C (C = all results conform to specifications)
- pH [1, 5]: C (C = all results conform to specifications)
- pH [1, 6]: C (C = all results conform to specifications)
- pH [1, 7]: C (C = all results conform to specifications)
- pH [1, 8]: C (C = all results conform to specifications)
- pH [1, 9]: C (C = all results conform to specifications)
- pH [1, 10]: C (C = all results conform to specifications)
- pH [1, 11]: C (C = all results conform to specifications)
- pH [1, 12]: C (C = all results conform to specifications)
- pH [1, 13]: C (C = all results conform to specifications)
- pH [1, 14]: C (C = all results conform to specifications)
- Visual Inspection ([2]; 25 mg ascorbic acid, 10.2 mCi, 0.97 mCi/mL, IRE Galli Eo, n=1, T0): C
- Visual Inspection ([2]; 25 mg ascorbic acid, 10.2 mCi, 0.97 mCi/mL, IRE Galli Eo, n=1, T1 (1 h)): C
- Visual Inspection ([2]; 25 mg ascorbic acid, 19.5-20.0 mCi, 1.85-1.90 mCi/mL, EZAG GalliaPharm, n=2, T0): C
- Visual Inspection ([2]; 25 mg ascorbic acid, 19.5-20.0 mCi, 1.85-1.90 mCi/mL, EZAG GalliaPharm, n=2, T1 (1 h)): C
- Visual Inspection ([2]; 25 mg ascorbic acid, 23.3-24 mCi, 2.22-2.28 mCi/mL, IRE Galli Eo, n=2, T0): C
- Visual Inspection ([2]; 25 mg ascorbic acid, 23.3-24 mCi, 2.22-2.28 mCi/mL, IRE Galli Eo, n=2, T4 (4 h)): C
- Visual Inspection ([2]; 25 mg ascorbic acid, 46.0-46.1 mCi, 4.38-4.39 mCi/mL, EZAG GalliaPharm, n=2, T0): C
- Visual Inspection ([2]; 25 mg ascorbic acid, 46.0-46.1 mCi, 4.38-4.39 mCi/mL, EZAG GalliaPharm, n=2, T4 (4 h)): C
- Visual Inspection [2, 3]: C
- Visual Inspection [2, 4]: C
- Visual Inspection [2, 5]: C
- Visual Inspection [2, 6]: C
- Visual Inspection [2, 7]: C
- Visual Inspection [2, 8]: C
- Visual Inspection [2, 9]: C
- Visual Inspection [2, 10]: C
- Visual Inspection [2, 11]: C
- Visual Inspection [2, 12]: C
- Visual Inspection [2, 13]: C
- Visual Inspection [2, 14]: C
